# Laboratory results: paper PMC8201735 (BMC Pharmacology & Toxicology, 2021)
# Tests used:
# subjects with T2DM [1] = conditions: RE 500 mg BID and metformin 500 mg BID for 3 days; cited from earlier work
# subjects with T2DM [2] = experiment: Adverse event monitoring, RE co-administered with metformin for 13 days; assay type: in vivo, human; conditions: for Any AE / Tolerability of co-administration with metformin: 13 days; for Tolerability of co-administration with metformin: RE 500 or 750 mg BID + metformin >=2000 mg/day
# Source text: The study was comprised of three phases; run-in, randomization, and treatment. […] In treatment phase the patients were considered in two cohorts. […] The adverse events monitoring included recording of any adverse event (AE) and serious adverse event (SAE) reported or observed during the entire study and follow-up period. All the subjects were counseled to inform study staff of any AEs that occurred during the study. Any abnormal laboratory findings (e.g., clinical chemistry, hematology, and urinalysis) or other abnormal assessments (e.g., ECGs, vital signs, physical examination) that were judged by the investigator as clinically significant were recorded as AEs or SAE.
# [3] = RE 500 mg BID + metformin, N = 16
# [4] = RE 750 mg BID + metformin, N = 17
smiles,measurement,setting,value
"CCOC(=O)OC[C@H]1O[C@@H](Oc2nn(C(C)C)c(C)c2Cc2ccc(OC(C)C)cc2)[C@H](O)[C@@H](O)[C@@H]1O [RE, remogliflozin etabonate]",Effect of RE on the steady-state plasma profiles of metformin,subjects with T2DM [1],no effect
same,Tolerability of concomitant administration,subjects with T2DM [1],well tolerated
same,Any AE,"subjects with T2DM [2]; RE 500 mg BID + metformin >=2000 mg/day, N = 16",6 (38%) N(%)
same,Dizziness,subjects with T2DM [2]; [3],1 (6%) N(%)
same,Nausea,subjects with T2DM [2]; [3],1 (6%) N(%)
same,Thirst,subjects with T2DM [2]; [3],0 N(%)
same,Post-therapy AEs,subjects with T2DM [2]; RE 750 mg + metformin group,no post-therapy AEs
same,Subjects with hypoglycemic laboratory events,"subjects with T2DM [2]; RE 750 mg + metformin group, moderate, resolved with sweets",one
same,Any AE,"subjects with T2DM [2]; RE 750 mg BID + metformin >=2000 mg/day, N = 17",4 (24%) N(%)
same,Diarrhoea,subjects with T2DM [2]; [4],1 (6%) N(%)
same,Dizziness,subjects with T2DM [2]; [4],1 (6%) N(%)
same,Dyslipidemia,subjects with T2DM [2]; [4],0 N(%)
same,Nausea,subjects with T2DM [2]; [4],1 (6%) N(%)
same,Supraventricular tachycardia,subjects with T2DM [2]; [4],0 N(%)
same,Urinary tract infection,subjects with T2DM [2]; [4],0 N(%)
same,Vomiting,subjects with T2DM [2]; [4],1 (6%) N(%)
same,Tolerability of co-administration with metformin,subjects with T2DM [2],generally well tolerated
same,Tolerability of co-administration with metformin,subjects with T2DM [2]; listed as remogliflozin etabonate,well tolerated
